Results taken from patent publication US9771372B2, “Compounds useful as S100-inhibitors” (Active Biotech AB, priority 2014, dated 2017).

target: T1, interaction between biotinylated human S100A9 and human RAGE-Fc (Homo sapiens, UniProt P06702); assay: AlphaScreen inhibition assay, Biot-hS100A9:hRAGE-Fc (S100A9-RAGE inhibition assay); assay type: binding; conditions: biot-hS100A9 and rhRAGE-Fc, Ca2+ and Zn2+ in buffer
T1 construct: made in house; host or cells: E. coli BL21(DE3)/pET1120 (pLR757)
T1 sequence (P06702 1-114): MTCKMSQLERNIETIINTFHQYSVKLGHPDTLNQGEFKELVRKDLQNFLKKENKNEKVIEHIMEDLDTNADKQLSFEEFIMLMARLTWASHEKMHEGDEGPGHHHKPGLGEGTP
In short: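 Biotinylated human S100A9, in HBS-P with CaCl2 and ZnCl2, preincubated 1 h at room temperature in the dark with compound (final DMSO ≤1.25%), then combined with rhRAGE-Fc on protein A Acceptor beads plus streptavidin Donor beads (20 μg/mL each). Protein levels batch-dependent; percent inhibition from AlphaScreen signal vs DMSO-only control.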

IC50 [nM]	Compound
3700	Cc1cc2nc3n(c2cc1C)C(NC(=O)c1ccc(Cl)nc1)(C(F)(F)F)C(=O)N3 (stereo not shown) [Example 28, 6-chloro-N-[10,11-dimethyl-4-oxo-3-(trifluoromethyl)-2,5,7-triazatricyclo[6.4.0.0^2,6]-dodeca-1(12),6,8,10-tetraen-3-yl]pyridine-3-carboxamide]
1400	Cc1cc2nc3n(c2cc1C)C(NC(=O)CCc1ccccc1)(C(F)(F)F)C(=O)N3 (stereo not shown) [Example 15, N-[10,11-dimethyl-4-oxo-3-(trifluoromethyl)-2,5,7-triazatricyclo[6.4.0.0^2,6]dodeca-1(8),6,9,11-tetraen-3-yl]-3-phenylpropanamide]
3900	CC(=O)N1CC(C(=O)NC2(C(F)(F)F)C(=O)Nc3nc4cc(Cl)c(Cl)cc4n32)C1 (stereo not shown) [Example 49, 1-acetyl-N-[10,11-dichloro-4-oxo-3-(trifluoromethyl)-2,5,7-triazatricyclo-[6.4.0.0^2,6]-dodeca-1(12),6,8,10-tetraen-3-yl]azetidine-3-carboxamide]
1450	COC[C@H](C)Nc1cccc(C(=O)NC2(C(F)(F)F)C(=O)Nc3nc4c(C#N)c(Cl)ccc4n32)n1 (mixture of isomers) [Example 140, N-[10-chloro-9-cyano-4-oxo-3-(trifluoromethyl)-2,5,7-triaza-tricyclo[6.4.0.0^2,6]dodeca-1(8),6,9,11-tetraen-3-yl]-6-{[(2S)-1-methoxypropan-2-yl]amino}-pyridine-2-carboxamide]
3970	O=C(NC1(C(F)(F)F)C(=O)Nc2nc3cc(Cl)c(Cl)cc3n21)C1(F)CNC1 (stereo not shown) [Example 103, N-[10,11-dichloro-4-oxo-3-(trifluoromethyl)-2,5,7-triazatricyclo[6.4.0.0^2,6]dodeca-1(8),6,9,11-tetraen-3-yl]-3-fluoroazetidine-3-carboxamide]
1930	COCCNc1cccc(C(=O)NC2(C(F)(F)F)C(=O)Nc3nc4cc(C)c(C)cc4n32)n1 (single isomer, unassigned) [Example 220a, N-[10,11-dimethyl-4-oxo-3-(trifluoromethyl)-2,5,7-triazatricyclo[6.4.0.0^2,6]dodeca-1(12),6,8,10-tetraen-3-yl]-6-[(2-methoxyethyl)amino]pyridine-2-carboxamide]
1490	CC(C)(C)c1ccc(-c2cccc3c2nc2n3C(NC(=O)CCC3CCCC3)(C(F)(F)F)C(=O)N2)cc1 (stereo not shown) [Example 191, N-[9-(4-tert-butylphenyl)-4-oxo-3-(trifluoromethyl)-2,5,7-triazatricyclo[6.4.0.0^2,6]dodeca-1(12),6,8,10-tetraen-3-yl]-3-cyclopentylpropanamide]
7400	Cc1ccc2c(nc3n2C(NC(=O)CCC2CCCC2)(C(F)(F)F)C(=O)N3)c1C (stereo not shown) [Example 80, 3-cyclopentyl-N-[9,10-dimethyl-4-oxo-3-(trifluoromethyl)-2,5,7-triazatricyclo[6.4.0.0^2,6]-dodeca-1(12),6,8,10-tetraen-3-yl]propanamide]
1080	COC(=O)c1cccc(C(=O)NC2(C(F)(F)F)C(=O)Nc3nc4cc(Cl)c(Cl)cc4n32)n1 (stereo not shown) [Example 95, methyl 6-{[10,11-dichloro-4-oxo-3-(trifluoromethyl)-2,5,7-triazatricyclo[6.4.0.0^2,6]dodeca-1(8),6,9,11-tetraen-3-yl]carbamoyl}pyridine-2-carboxylate]
800	O=C(CCc1ccccc1)NC1(C(F)(F)F)C(=O)Nc2nc3cc(Cl)c(Cl)cc3n21 (stereo not shown) [Example 37, N-[10,11-dichloro-4-oxo-3-(trifluoromethyl)-2,5,7-triazatricyclo[6.4.0.0^2,6]dodeca-1(8),6,9,11-tetraen-3-yl]-3-phenylpropanamide]
3500	Cc1cc2nc3n(c2cc1C)C(NC(=O)c1ccccc1)(C(F)(F)F)C(=O)N3 (stereo not shown) [Example 14, N-[10,11-dimethyl-4-oxo-3-(trifluoromethyl)-2,5,7-triazatricyclo[6.4.0.0^2,6]dodeca-1(8),6,9,11-tetraen-3-yl]benzamide]
3000	CC(C)CC(=O)N1CCC(C(=O)NC2(C(F)(F)F)C(=O)Nc3nc4cc(Cl)c(Cl)cc4n32)CC1 (stereo not shown) [Example 45, N-[10,11-dichloro-4-oxo-3-(trifluoromethyl)-2,5,7-triazatricyclo[6.4.0.0^2,6]dodeca-1(12),6,8,10-tetraen-3-yl]-1-(3-methylbutanoyl)piperidine-4-carboxamide]
940	O=C(CCC1CCCC1)NC1(C(F)(F)F)C(=O)Nc2nc3cc(Cl)c(Cl)cc3n21 (single isomer, unassigned) [Example 219a, 3-cyclopentyl-N-[10,11-dichloro-4-oxo-3-(trifluoromethyl)-2,5,7-triazatricyclo[6.4.0.0^2,6]dodeca-1(12),6,8,10-tetraen-3-yl]propanamide]
1340	O=C(CCC1CCCC1)NC1(C(F)(F)F)C(=O)Nc2nc3c(-c4ccc(Cl)c(Cl)c4)cccc3n21 (stereo not shown) [Example 203, 3-cyclopentyl-N-[9-(3,4-dichlorophenyl)-4-oxo-3-(trifluoromethyl)-2,5,7-triazatricyclo[6.4.0.0^2,6]dodeca-1(12),6,8,10-tetraen-3-yl]propanamide]
5400	Cc1cc2nc3n(c2cc1C)C(NC(=O)CCc1c(Cl)cccc1Cl)(C(F)(F)F)C(=O)N3 (stereo not shown) [Example 29, 3-(2,6-dichlorophenyl)-N-[10,11-dimethyl-4-oxo-3-(trifluoromethyl)-2,5,7-triaza-tricyclo[6.4.0.0^2,6]dodeca-1(8),6,9,11-tetraen-3-yl]propanamide]
1500	CC(=O)c1cccc2c1nc1n2C(NC(=O)CCC2CCCC2)(C(F)(F)F)C(=O)N1 (stereo not shown) [Example 122, N-[9-acetyl-4-oxo-3-(trifluoromethyl)-2,5,7-triazatricyclo[6.4.0.0^2,6]dodeca-1(12),6,8,10-tetraen-3-yl]-3-cyclopentylpropanamide]
3800	O=C(NC1(C(F)(F)F)C(=O)Nc2nc3cc(Cl)c(Cl)cc3n21)C1CCN(C(=O)CC(F)(F)F)CC1 (stereo not shown) [Example 46, N-[10,11-dichloro-4-oxo-3-(trifluoromethyl)-2,5,7-triazatricyclo[6.4.0.0^2,6]dodeca-1(12),6,8,10-tetraen-3-yl]-1-(3,3,3-trifluoropropanoyl)piperidine-4-carboxamide]
2600	O=C(CCC1CCCC1)NC1(C(F)(F)F)C(=O)Nc2nc3c(Cl)cccc3n21 (stereo not shown) [Example 85, N-[9-chloro-4-oxo-3-(trifluoromethyl)-2,5,7-triazatricyclo[6.4.0.0^2,6]dodeca-1(12),6,8,10-tetraen-3-yl]-3-cyclopentylpropanamide]
1400	O=C(CCC1CCCC1)NC1(C(F)(F)F)C(=O)Nc2nc3c(F)c(F)ccc3n21 (stereo not shown) [Example 82, 3-cyclopentyl-N-[9,10-difluoro-4-oxo-3-(trifluoromethyl)-2,5,7-triazatricyclo[6.4.0.0^2,6]-dodeca-1(12),6,8,10-tetraen-3-yl]propanamide]
3700	Cc1cc2nc3n(c2cc1C)C(NC(=O)c1cccc(C2CCCCC2)n1)(C(F)(F)F)C(=O)N3 (stereo not shown) [Example 36, 6-cyclohexyl-N-[10,11-dimethyl-4-oxo-3-(trifluoromethyl)-2,5,7-triazatricyclo[6.4.0.0^2,6]-dodeca-1(12),6,8,10-tetraen-3-yl]pyridine-2-carboxamide]
5900	Cc1cc2nc3n(c2cc1C)C(NC(=O)[C@@H]1CCCN1S(C)(=O)=O)(C(F)(F)F)C(=O)N3 (single isomer, unassigned) [Example 89]
700	O=C(NC1(C(F)(F)F)C(=O)Nc2nc3cc(Cl)c(Cl)cc3n21)C1CN(c2ccccn2)C1 (stereo not shown) [Example 52, N-[10,11-dichloro-4-oxo-3-(trifluoromethyl)-2,5,7-triazatricyclo[6.4.0.0^2,6]dodeca-1(12),6,8,10-tetraen-3-yl]-1-(pyridin-2-yl)azetidine-3-carboxamide]
1100	O=C(NC1(C(F)(F)F)C(=O)Nc2nc3cc(Cl)c(Cl)cc3n21)c1cccc(Cl)n1 (stereo not shown) [Example 62, 6-chloro-N-[10,11-dichloro-4-oxo-3-(trifluoromethyl)-2,5,7-triazatricyclo[6.4.0.0^2,6]-dodeca-1(12),6,8,10-tetraen-3-yl]pyridine-2-carboxamide]
920	CCCC(=O)NC1(C(F)(F)F)C(=O)Nc2nc3c(-c4ccc(OC)cc4)cccc3n21 (stereo not shown) [Example 234, N-[9-(4-methoxyphenyl)-4-oxo-3-(trifluoromethyl)-2,5,7-triazatricyclo[6.4.0.0^2,6]dodeca-1(12),6,8,10-tetraen-3-yl]butanamide]
4000	O=C(CN1CCOCC1)NC1(C(F)(F)F)C(=O)Nc2nc3cc(Cl)c(Cl)cc3n21 (stereo not shown) [Example 60, N-[10,11-dichloro-4-oxo-3-(trifluoromethyl)-2,5,7-triazatricyclo[6.4.0.0^2,6]dodeca-1(12),6,8,10-tetraen-3-yl]-2-(morpholin-4-yl)acetamide]
11400	COc1cc2nc3n(c2cc1OC)C(NC(=O)CCC1CCCC1)(C(F)(F)F)C(=O)N3 (stereo not shown) [Example 76, 3-cyclopentyl-N-[10,11-dimethoxy-4-oxo-3-(trifluoromethyl)-2,5,7-triazatricyclo-[6.4.0.0^2,6]dodeca-1(12),6,8,10-tetraen-3-yl]propanamide]
6400	O=C(CCC1CCCC1)NC1(C(F)(F)F)C(=O)Nc2nc3c(F)cc(F)cc3n21 (stereo not shown) [Example 86, 3-cyclopentyl-N-[9,11-difluoro-4-oxo-3-(trifluoromethyl)-2,5,7-triazatricyclo-[6.4.0.0^2,6]dodeca-1(12),6,8,10-tetraen-3-yl]propanamide]
1560	O=C(CCC1CCCC1)NC1(C(F)(F)F)C(=O)Nc2nc3c(-c4ccc([N+](=O)[O-])cc4)cccc3n21 (stereo not shown) [Example 193, 3-cyclopentyl-N-[9-(4-nitrophenyl)-4-oxo-3-(trifluoromethyl)-2,5,7-triazatricyclo[6.4.0.0^2,6]dodeca-1(12),6,8,10-tetraen-3-yl]propanamide]
